target: T1, ER (Homo sapiens, UniProt P03372); assay: ER degradation activity, in-cell western blot analysis in T47D cells; assay type: cell-based; settings: 16 hours, Table A does not say which cell line (T47D or MCF7), read-out: Potency (DC50)
T1 construct: host or cells: T47D and MCF7 human breast cancer cells
T1 sequence (P03372 1-595): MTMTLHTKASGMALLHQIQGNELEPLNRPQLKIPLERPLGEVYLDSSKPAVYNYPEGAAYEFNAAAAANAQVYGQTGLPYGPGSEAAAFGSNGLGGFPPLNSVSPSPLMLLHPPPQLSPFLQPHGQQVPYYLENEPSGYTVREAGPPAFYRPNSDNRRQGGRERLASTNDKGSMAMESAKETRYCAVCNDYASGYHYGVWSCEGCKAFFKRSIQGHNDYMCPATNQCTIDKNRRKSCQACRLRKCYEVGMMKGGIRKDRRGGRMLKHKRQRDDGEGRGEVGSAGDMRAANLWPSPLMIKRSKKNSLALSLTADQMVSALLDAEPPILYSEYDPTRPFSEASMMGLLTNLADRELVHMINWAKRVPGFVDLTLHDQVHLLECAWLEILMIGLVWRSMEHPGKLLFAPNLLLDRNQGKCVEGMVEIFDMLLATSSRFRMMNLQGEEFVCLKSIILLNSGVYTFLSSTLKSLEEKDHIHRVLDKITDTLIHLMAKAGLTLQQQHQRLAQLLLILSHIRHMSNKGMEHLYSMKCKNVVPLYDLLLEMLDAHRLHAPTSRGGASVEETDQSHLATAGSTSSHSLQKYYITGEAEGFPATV
How it was run: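 Human T47D cells (DMEM, 10% FBS) are dosed for 16 h with 0.5% DMSO final and probed with 680- and 800-dye secondary antibodies. Relative ER is calculated against vehicle and untreated wells.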

| SMILES | DC50 [nM] |
| --- | --- |
| O=C1CCC(N2C(=O)c3cc4c(cc3C2=O)CN(C(=O)CN2CC3(CCN(c5ccc([C@@H]6c7ccc(O)cc7CC[C@@H]6c6ccccc6)cc5)CC3)C2)C4)C(=O)N1 (mixture of isomers) [E 125, Rac-2-(2,6-dioxopiperidin-3-yl)-6-(2-(7-(4-((1R,2S)-6-hydroxy-2-phenyl-1,2,3,4-tetrahydronaphthalen-1-yl)phenyl)-2,7-diazaspiro[3.5]nonan-2-yl)acetyl)-6,7-dihydropyrrolo[3,4-f]isoindole-1,3(2H,5H)-dione] | 10 to 100 |
| C[C@@H]1Cc2cc(O)ccc2[C@@H](c2ccc(N3CCC4(CCN(C(=O)CN5Cc6cc7c(cc6C5)C(=O)N(C5CCC(=O)NC5=O)C7=O)CC4)CC3)cc2)N1CC(F)F (stereo partly drawn) [E 301, 6-(2-(9-(4-((1R,3R)-2-(2,2-difluoroethyl)-6-hydroxy-3-methyl-1,2,3,4-tetrahydroisoquinolin-1-yl)phenyl)-3,9-diazaspiro[5.5]undecan-3-yl)-2-oxoethyl)-2-(2,6-dioxopiperidin-3-yl)-6,7-dihydropyrrolo[3,4-f]isoindole-1,3(2H,5H)-dione] | 10 to 100 |
| C[C@@H]1Cc2c([nH]c3ccccc23)[C@@H](c2cnc(N3CCC4(CCN(C(=O)CN5Cc6cc7c(cc6C5)C(=O)N(C5CCC(=O)NC5=O)C7=O)CC4)CC3)nc2)N1CC(F)(F)F (stereo partly drawn) [E 254, 2-(2,6-dioxopiperidin-3-yl)-6-(2-(9-(5-((1R,3R)-3-methyl-2-(2,2,2-trifluoroethyl)-2,3,4,9-tetrahydro-1H-pyrido[3,4-b]indol-1-yl)pyrimidin-2-yl)-3,9-diazaspiro[5.5]undecan-3-yl)-2-oxoethyl)-6,7-dihydropyrrolo[3,4-f]isoindole-1,3(2H,5H)-dione] | < 10 |
| O=C1CCC(N2C(=O)c3cc4c(cc3C2=O)CN(CC(=O)N2CCC3(CC2)CCN(c2ccc([C@@H]5c6ccc(O)cc6CC[C@@H]5c5ccc(F)cc5)cc2)C3)C4)C(=O)N1 (stereo partly drawn) [E 186, 2-(2,6-dioxopiperidin-3-yl)-6-(2-(2-(4-((1R,2S)-2-(4-fluorophenyl)-6-hydroxy-1,2,3,4-tetrahydronaphthalen-1-yl)phenyl)-2,8-diazaspiro[4.5]decan-8-yl)-2-oxoethyl)-6,7-dihydropyrrolo[3,4-f]isoindole-1,3(2H,5H)-dione] | 10 to 100 |

The remaining lines, values ahead:

| DC50 [nM] | SMILES |
| --- | --- |
| < 10 | C[C@@H]1Cc2c([nH]c3ccccc23)[C@@H](c2c(F)cc(N3CC(C(=O)N4CCC(N5Cc6cc7c(cc6C5)C(=O)N(C5CCC(=O)NC5=O)C7=O)CC4)C3)cc2F)N1CC(F)F (stereo partly drawn) [E 122, 6-(1-(1-(4-((1R,3R)-2-(2,2-difluoroethyl)-3-methyl-2,3,4,9-tetrahydro-1H-pyrido[3,4-b]indol-1-yl)-3,5-difluorophenyl)azetidine-3-carbonyl)piperidin-4-yl)-2-(2,6-dioxopiperidin-3-yl)-6,7-dihydropyrrolo[3,4-f]isoindole-1,3(2H,5H)-dione] |
| < 10 | C[C@@H]1Cc2c([nH]c3ccccc23)[C@@H](c2c(F)cc(N3CCC(CN4CCC(N5Cc6cc7c(cc6C5)C(=O)N(C5CCC(=O)NC5=O)C7=O)C4)CC3)cc2F)N1CC(F)F (stereo partly drawn) [E 129, 6-(1-((1-(4-((1R,3R)-2-(2,2-difluoroethyl)-3-methyl-2,3,4,9-tetrahydro-1H-pyrido[3,4-b]indol-1-yl)-3,5-difluorophenyl)piperidin-4-yl)methyl)pyrrolidin-3-yl)-2-(2,6-dioxopiperidin-3-yl)-6,7-dihydropyrrolo[3,4-f]isoindole-1,3(2H,5H)-dione] |

same assay, conditions: compounds 16 hours, Table A does not say whether T47D or MCF7, read-out: Potency (DC50)

| DC50 [nM] | SMILES |
| --- | --- |
| 10 to 100 | C[C@@H]1Cc2c([nH]c3ccccc23)[C@@H](c2cnc(N3CC4(CCC(CN5Cc6cc7c(cc6C5)C(=O)N(C5CCC(=O)NC5=O)C7=O)CC4)C3)nc2)N1CC(F)(F)CO (stereo partly drawn) [E 513, 6-((2-(5-((1R,3R)-2-(2,2-difluoro-3-hydroxypropyl)-3-methyl-2,3,4,9-tetrahydro-1H-pyrido[3,4-b]indol-1-yl)pyrimidin-2-yl)-2-azaspiro[3.5]nonan-7-yl)methyl)-2-(2,6-dioxopiperidin-3-yl)-6,7-dihydropyrrolo[3,4-f]isoindole-1,3(2H,5H)-dione] |

From patent US20240190880A1 (THE REGENTS OF THE UNIVERSITY OF MICHIGAN, priority 2021, published 2024)
